The results in this text go back to US20240043467A1, “5'-SUBSTITUTED NUCLEOSIDE MONOPHOSPHATES, PRODRUGS THEREOF, AND USES RELATED THERETO” (EMORY UNIVERSITY, priority 2020, published 2024).

In the assay the target is T1, Recombinant human thymidylate synthase (hTS) (Homo sapiens, UniProt P04818).
T1 construct: purchased Abcam
In words: Human thymidylate synthase inhibition assay. The assay is classed as biochemical. The following applies: for hTS inhibition: highest concentration tested 20 μM. The method, then: Recombinant human thymidylate synthase (hTS) was purchased from Abcam. […] 5,10-Methylenetetrahydrofolate (calcium salt) was purchased from Boc Sciences and used without further purification.
The hTS inhibition assays were performed on a BioTek Synergy Neo2 plate reader equipped with a Xenon flash lamp and a photodiode array detector. The hTS reaction was conducted at room temperature in a buffer solution (pH 7.5) containing 50 mM Tris-HCl, 1 mM EDTA, 25 mM MgCl2, and 5 mM HCHO. […] 5,10-Methylenetetrahydrofolate was added last to initiate the reaction. Formation of the co-product, dihydrofolate, was monitored at 340 nm. The absorbance at 340 nm was plotted against the reaction time to calculate the reaction rate (i.e., the slope of the linear fitting). The reaction rates at different inhibitor concentrations were normalized to the reaction rate determined in the absence of inhibitor (100% enzymatic activity). The resulting % enzymatic activity values were plotted against the corresponding log value of the inhibitor concentration to construct concentration-response curves. IC50 values were then calculated using non-linear regression (four-parameter logistic equation, see Equation 1 below) in the GraphPad Prism v.9 software.
Y=Ymin+(Ymax−Ymin)/[1+10^((logIC50−X)×Hill Slope)] Equation 1

T1 sequence (P04818 whole entry): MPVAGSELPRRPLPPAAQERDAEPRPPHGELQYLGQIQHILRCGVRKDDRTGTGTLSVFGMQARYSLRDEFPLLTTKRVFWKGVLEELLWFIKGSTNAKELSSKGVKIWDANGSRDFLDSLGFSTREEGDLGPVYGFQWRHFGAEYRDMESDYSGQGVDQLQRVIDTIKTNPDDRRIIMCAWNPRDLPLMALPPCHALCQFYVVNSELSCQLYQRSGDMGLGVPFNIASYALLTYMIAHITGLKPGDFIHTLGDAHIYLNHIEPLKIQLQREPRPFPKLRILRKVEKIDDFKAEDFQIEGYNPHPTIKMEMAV

Broadly, the IC50 is the point on the concentration scale where inhibition reaches its midpoint. Take `C[C@@H](OP(=O)(O)O)[C@H]1O[C@@H](n2cc(F)c(=O)[nH]c2=O)C[C@@H]1O` [MD-7-105, lithium (R)-1-((2S,3S,5R)-5-(5-fluoro-2,4-dioxo-3,4-dihydropyrimidin-1(2H)-yl)-3-hydroxytetrahydrofuran-2-yl)ethyl phosphate]: the half-inhibitory concentration (IC50) (50 μM dUMP, 0.84 μM hTS, five repeats, pH 7.5, room temperature, read-out: IC50 against hTS) is 1.21 µM. With `C[C@H](OP(=O)(O)O)[C@H]1O[C@@H](n2cc(F)c(=O)[nH]c2=O)C[C@@H]1O` [MD-7-112, lithium (S)-1-((2S,3S,5R)-5-(5-fluoro-2,4-dioxo-3,4-dihydropyrimidin-1(2H)-yl)-3-hydroxytetrahydrofuran-2-yl)ethyl phosphate], the hTS inhibition result is “inactive”.

Regarding `CC(C)(OP(=O)([O-])[O-])[C@H]1O[C@@H](n2cc(F)c(=O)[nH]c2=O)C[C@@H]1O.[Li+].[Li+]` [MD-7-115, lithium 2-((2S,3S,5R)-5-(5-fluoro-2,4-dioxo-3,4-dihydropyrimidin-1(2H)-yl)-3-hydroxytetrahydrofuran-2-yl)propan-2-yl phosphate], the hTS inhibition result was “inactive”.
